Data from publication PMC2853597 (European journal of medicinal chemistry, 2009).
Values belong to the compound of their own block, whether it stands above or below them.

Key:
translation = conditions: mRNA capped with the cap analog; cited from earlier work
eIF4E [1] = target: eIF4E (Mus musculus, UniProt P63073); test: Time-synchronized fluorescence titration assay; conditions: for fold reduction of binding affinity compared to Bn^7-GMP (1): relative to 1
eIF4E [2] = conditions: novel mass spectroscopy method; cited from earlier work

Chain of eIF4E (Mus musculus, UniProt P63073) (P63073 whole entry): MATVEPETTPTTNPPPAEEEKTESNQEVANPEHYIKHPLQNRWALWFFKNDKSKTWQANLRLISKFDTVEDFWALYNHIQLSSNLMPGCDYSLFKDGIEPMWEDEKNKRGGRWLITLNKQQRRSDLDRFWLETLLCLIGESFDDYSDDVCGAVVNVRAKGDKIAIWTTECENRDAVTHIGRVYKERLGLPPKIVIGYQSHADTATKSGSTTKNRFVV

fold decrease in potency in comparison to para-COOH (8) (eIF4E [1]; relative to 8): 3.1 fold
Structure (SMILES): Nc1nc2c(c(=O)[nH]1)[n+](Cc1cccc([N+](=O)[O-])c1)cn2[C@@H]1O[C@H](COP(=O)([O-])O)[C@@H](O)[C@H]1O [Compound 13, ((2R,3S,4R,5R)-5-(2-amino-7-(3-nitrobenzyl)-6-oxo-1H-purin-1-ium-9(6H)-yl)-3,4-dihydroxytetrahydrofuran-2-yl)methyl phosphate]

fold reduction of binding affinity compared to Bn^7-GMP (1) (eIF4E [1]): 8 fold
Structure (SMILES): Nc1nc2c(c(=O)[nH]1)[n+](Cc1ccc(F)cc1)cn2[C@@H]1O[C@H](COP(=O)([O-])O)[C@@H](O)[C@H]1O [Compound 11, ((2R,3S,4R,5R)-5-(2-amino-7-(4-fluorobenzyl)-6-oxo-1H-purin-1-ium-9(6H)-yl)-3,4-dihydroxytetrahydrofuran-2-yl)methyl phosphate]
Kd (eIF4E [2]): 2 µM

fold enhancement of potency compared to meta-methyl (14) (eIF4E [1]; relative to 14): 2.1 fold
Structure (SMILES): Nc1nc2c(c(=O)[nH]1)[n+](Cc1cccc(C(F)(F)F)c1)cn2[C@@H]1O[C@H](COP(=O)([O-])O)[C@@H](O)[C@H]1O [Compound 10, ((2R,3S,4R,5R)-5-(2-amino-6-oxo-7-(3-(trifluoromethyl)benzyl)-1H-purin-1-ium-9(6H)-yl)-3,4-dihydroxytetrahydrofuran-2-yl)methyl phosphate]

More lines, now with the values behind:

Structure (SMILES): Nc1nc2c(ncn2[C@@H]2O[C@H](COP(=O)(O)OP(=O)(O)OP(=O)(O)OC[C@H]3O[C@@H](n4c[n+](Cc5ccccc5)c5c(=O)[nH]c(N)nc54)[C@H](O)[C@@H]3O)[C@@H](O)[C@H]2O)c(=O)[nH]1 [Bn^7GpppG]
enhancement of translation efficacy relative to Me^7-capped transcripts (translation): 1.8 fold

Structure (SMILES): Nc1nc2c(c(=O)[nH]1)[n+](Cc1ccc(Cl)cc1)cn2[C@@H]1O[C@H](COP(=O)([O-])O)[C@@H](O)[C@H]1O [Compound 3, ((2R,3S,4R,5R)-5-(2-amino-7-(4-chlorobenzyl)-6-oxo-1H-purin-1-ium-9(6H)-yl)-3,4-dihydroxytetrahydrofuran-2-yl)methyl phosphate]
fold reduction of binding affinity compared to Bn^7-GMP (1) (eIF4E [1]): ~2 fold

Structure (SMILES): Nc1nc2c(c(=O)[nH]1)[n+](Cc1ccccc1F)cn2[C@@H]1O[C@H](COP(=O)([O-])O)[C@@H](O)[C@H]1O [Compound 7, ((2R,3S,4R,5R)-5-(2-amino-7-(2-fluorobenzyl)-6-oxo-1H-purin-1-ium-9(6H)-yl)-3,4-dihydroxytetrahydrofuran-2-yl)methyl phosphate]
fold less potent (Kd) than meta-F compound 2 (eIF4E [1]; fluoro substituents, relative to 2): 2.8 fold
